Measured values as given in patent US20170369887A1, “Therapeutic compositions for breast cancer containing protein kinase D1 inhibitor” (SOOKMYUNG WOMEN'S UNIVERSITY INDUSTRY ACADEMIC COOPERATION …, priority 2016, published 2017).

Key:
GSK3/β-catenin signaling [1] = assay: Western blot of PKD/PKCμ phosphorylation and GSK3/β-catenin signaling in MCF-7-ADR cells; type: cell-based, human; details: 1 μM or 5 μM, FIG. 3A
Procedure: CRT0066101 was purchased from R&D Systems (Minneapolis, Minn., USA); this drug was resuspended in sterile distilled water and used for in vivo studies. To treat CRT0066101, MCF-7-ADR cells (American Type Culture Collection, Manassas, Va., USA) were seeded and 0.1 to 10 μM CRT0066101 was added and incubated for 1 hour. WST-8 was purchased from Enzo Life Sciences, Inc. (Farmingdale, N.Y., USA). PRKD1 siRNA and scrambled siRNA (Santa Cruz Biotechnology, Santa Cruz, Calif., USA) were transfected by using Lipofectamine RNAiMAX (Invitrogen, Carlsbad, Calif., USA).
(§1) A total of 30 μg of a protein extract was isolated by 8% SDS-PAGE and the protein was electrophoretically transferred to a PVDF membrane. The primary antibodies used were phosphorylated PKD/PKCμ (Ser916), GSK3β, phosphorylated GSK3α (Ser21)/β (Ser9), and β-catenin. These antibodies were purchased from Cell Signaling Technology (Danvers, Mass., USA) and the PKD/PKCμ antibody was purchased from Santa Cruz Biotechnology. (β-actin (Bethyl Laboratories, Montgomery, Tex., USA) was used as a loading control. The membrane was washed with 1×PBS/0.1% Tween 20 and the bound proteins were detected with an enhanced chemiluminescent reagent (Amersham Pharmacia Biotech, Parsippany, N.J., USA).

GSK3/β-catenin signaling [2] = assay: Western blot of GSK3/β-catenin signaling in MCF-7 cells; type: cell-based, human; details: FIG. 12A
Procedure: as §1

MCF-7-ADR cells [3] = assay: Tumorsphere formation assay (TSA); type: cell-based, human; details: 1 μM or 5 μM, vs control, FIG. 3B
Procedure: For incubation of tumorspheres, cells (2000 cells/mL) were suspended and incubated in serum-free DMEM/F12 (welGENE) containing 1% penicillin, B27 (1:50; Gibco; Thermo Fisher), 20 ng/mL of an epidermal growth factor (Prospec, East Brunswick, N.J., (WelGENE) […] of insulin (Sigma-Aldrich, St. Louis, Mo., USA) and 0.4% bovine serum albumin (Sigma-Aldrich). After about 10 days, the plate was analyzed and formation of tumorspheres was verified and quantified with a microscope (Olympus IX71; Olympus, Tokyo, Japan). In order to count the number of tumorspheres, MCF-7-ADR cells were filtered and quantified by a strainer (BD Biosciences, East Rutherford, N.J., USA) having a pore size of 70 μm. Treatment with CRT0066101 was performed on 6-th day and 8-th day after incubation.

MCF-7-ADR cells [4] = assay: CD44+/CD24− surface marker analysis using flow cytometry; type: cell-based, human; details: 1 μM, FIG. 3C
Procedure: Cells were collected after transfection with RNAi of PRKD1 or CRT0066101 treatment and expression of CD44 +/CD24-surfaces was evaluated. The cells were washed with 2% FBS, stained with anti-CD44 (APC-conjugated; BD Biosciences) and anti-CD24 (BD Biosciences) in a PBS containing 2% FBS, and placed on ice in the dark for 30 minutes. The cells were washed again with a cold PBS buffer, loaded with >10,000 cells in a BD CantoII flow cytometer (BD Biosciences), and then analyzed by flow cytometry using FACSDiVa software (BD Biosciences).

MCF-7-ADR cells [5] = assay: Cell survival rate, WST-8 assay, MCF-7-ADR; type: cell-based, human
Procedure: […] Cell survival rate was analyzed by WST-8 assay (Sigma-Aldrich) and an optical density was measured at 450 nm using a microplate reader.

MCF-7 cells = assay: Cell survival rate, WST-8 assay, MCF-7; type: cell-based, human; details: 0.1 to 5 μM, FIG. 12B
MCF-7-ADR cells [6] = assay: Annexin V and propidium iodide (PI) staining; type: cell-based, human; details: FIG. 4E
MCF-7-ADR cells [7] = assay: MCF-7-ADR xenograft in nude mice treated with CRT0066101; type: in vivo, mouse
Procedure: A control or miR-32a overexpressed tumor and a carrier or CRT0066101 treated tumor were cut and paraffin-treated slides were used. The paraffin was removed from the slides, rehydrated 3 to 4 times in Histoclear, and then passed sequentially through ethanol at different concentrations (100%, 95%, 80%, and 70%). Antigen reconstitution was performed by immersing fragments in a 0.01M citric acid solution (pH 6.0) and boiling the fragments in a microwave for 15 minutes. In the case of TUNEL analysis, an in-situ apoptosis detection kit, a fluorescent material (Roche, Indianapolis, USA) labeled apoptotic cells, and a Ki-67 primary antibody (Vector Lab, USA) were applied to the fragments and incubated at 4° C. overnight. Thereafter, the slides were incubated with DAPI and secondary antibody for two hours. Finally, the slides were treated with a mounting solution (Dako) and a photograph was taken with a confocal microscope (Zeiss).
All studies, including the use of nude mice, were approved by the committee on animal protection and use of the Yonsei University Medical center (2015-0087) and performed under conditions according to facilities without specific pathogens and the guideline of the committee. Mice were anesthetized with 150 μl saline/zoletil/rompun (7:1:1) outside each femoral region and subcutaneously injected with 1.5×10^6 of MCF-7-ADR cells. Six mice were randomly grouped and started to be treated from 10-th day after tumor graft. […] The tumor size was measured every 3 to 4 days using a caliper from formation of touched tumor to termination and the tumor volume was calculated by Equation of length×width^2×0.5236. The mice were sacrificed in a 7.5% CO2 chamber and tumors were isolated and used for immunohistochemistry and other assays.

[8] = target: T1, PRKD1 autophosphorylation (Homo sapiens, UniProt Q15139); details: reference [16]; cited from earlier work
T1 sequence (Q15139 1-912): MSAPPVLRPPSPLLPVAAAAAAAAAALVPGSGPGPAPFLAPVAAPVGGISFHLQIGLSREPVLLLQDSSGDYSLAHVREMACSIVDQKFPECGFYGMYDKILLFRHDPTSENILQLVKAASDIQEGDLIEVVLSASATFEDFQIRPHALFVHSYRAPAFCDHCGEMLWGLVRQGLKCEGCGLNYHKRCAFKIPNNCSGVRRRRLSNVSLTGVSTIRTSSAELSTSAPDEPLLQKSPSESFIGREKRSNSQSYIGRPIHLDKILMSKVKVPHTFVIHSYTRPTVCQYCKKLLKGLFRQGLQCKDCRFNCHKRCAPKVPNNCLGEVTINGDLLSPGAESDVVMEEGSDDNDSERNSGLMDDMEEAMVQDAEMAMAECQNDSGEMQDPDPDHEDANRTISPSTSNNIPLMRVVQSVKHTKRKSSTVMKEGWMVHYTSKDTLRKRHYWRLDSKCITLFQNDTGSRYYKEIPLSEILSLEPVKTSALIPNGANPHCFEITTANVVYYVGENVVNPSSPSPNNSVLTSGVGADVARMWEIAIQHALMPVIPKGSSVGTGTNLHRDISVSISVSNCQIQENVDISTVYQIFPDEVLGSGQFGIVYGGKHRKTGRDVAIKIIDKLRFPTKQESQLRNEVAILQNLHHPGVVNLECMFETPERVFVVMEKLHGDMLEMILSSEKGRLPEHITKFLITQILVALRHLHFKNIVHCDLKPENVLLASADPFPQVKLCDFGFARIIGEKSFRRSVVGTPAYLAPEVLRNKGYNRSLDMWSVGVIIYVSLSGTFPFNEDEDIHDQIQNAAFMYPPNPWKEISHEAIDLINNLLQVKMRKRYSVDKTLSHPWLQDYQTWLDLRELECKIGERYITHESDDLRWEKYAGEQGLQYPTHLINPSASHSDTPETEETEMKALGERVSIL

[9] = treated tumor vs control, FIG. 5G

SMILES: CC[C@@H](N)CNc1ccnc(-c2cc(-c3cnn(C)c3)ccc2O)n1.Cl.Cl [CRT0066101]
- phosphorylation of PKD/PKCμ and GSK3/β-catenin (GSK3/β-catenin signaling [1]): inhibited
- GSK3/β-catenin signaling (GSK3/β-catenin signaling [2]): not affected
- number of tumorspheres (>70 μm) (MCF-7-ADR cells [3]): decreased dose-dependently
- number (Q1) of CD44+/CD24− (MCF-7-ADR cells [4]): also decreased
- cell survival rate (MCF-7-ADR cells [5]; MCF-7-ADR cells, 0.1 to 5 μM, FIG. 4C): decreased cell survival rate dose-dependently
- cell survival rate, combination with doxorubicin (MCF-7-ADR cells [5]; MCF-7-ADR, CRT0066101 combined with doxorubicin, vs CRT0066101 alone, FIG. 4D): significantly lowered
- cell survival rate (MCF-7 cells): did not decrease
- level of apoptosis in doxorubicin-treated cells (MCF-7-ADR cells [6]; CRT0066101 added to doxorubicin-treated cells): increased
- side effects (sign of toxicity, weight loss) (MCF-7-ADR cells [7]; 65 mg/kg daily for 4 weeks, all animals, FIG. 5E): did not cause side effects
- tumor size (MCF-7-ADR cells [7]; 65 mg/kg daily for 4 weeks, oral, vs untreated control, FIG. 5D): reduced
- tumor weight (MCF-7-ADR cells [7]; 65 mg/kg daily for 4 weeks, vs control tumor, FIG. 5E): reduced
- change in mouse's weight (MCF-7-ADR cells [7]; 65 mg/kg orally daily for 4 weeks, FIG. 5E): not detected
- volume of tumor (MCF-7-ADR cells [7]; 65 mg/kg orally daily for 4 weeks, vs control tumor, FIG. 5E): reduced
- apoptosis in tumor, TUNEL analysis (MCF-7-ADR cells [7]; [9]): apoptosis increased
- proliferation in tumor, Ki-67 staining (MCF-7-ADR cells [7]; [9]): proliferation decreased
- phosphorylated PKD/PKCμ through GSK3/β-catenin signaling in tumor (MCF-7-ADR cells [7]; western blot of tumor, FIG. 5F): down regulation
- growth of pancreatic cancer [8]: blocked growth

SMILES: COc1cccc2c1C(=O)c1c(O)c3c(c(O)c1C2=O)C[C@@](O)(C(=O)CO)C[C@@H]3O[C@H]1C[C@H](N)[C@H](O)[C@H](C)O1 [doxorubicin]
- cell survival rate (MCF-7-ADR cells [5]; MCF-7-ADR cells exposed to doxorubicin at different doses, FIG. 4A): reduced dose-dependently
- initiation of apoptosis (MCF-7-ADR cells [6]; treated cells vs control): increased
